Source: US20260209269A1, “MANDELIC ACID SALT OF PALMITOYL LYSYLVALYL-LYSINE” (DSM IP Assets B.V., priority 2022, published 2026)

Assay: Stability in a cosmetic preparation (clear gel), peptide content after storage
Type: physicochemical

Substance	loss of active (after 3 months storage at 40° C.) [%]	loss of active (after 1 months at 40° C.) [%]
Palm-Lys-Val-Lys-OH*2MA [MA salt]	−19	–
Palm-Lys-Val-Lys-OH*2MPAA [MPAA salt]	–	52
